Results published in paper PMC8558150 (Acta Pharmaceutica Sinica. B, 2021).
Like-named read-outs stand apart in the source and are kept apart here. Peptide text beside a SMILES is read from it.

What was measured:
SARS CoV-2 M^pro [1] = target: T1, SARS CoV-2 M^pro (Severe acute respiratory syndrome coronavirus 2, UniProt P0DTD1); type: cell-based
SARS CoV-2 M^pro [2] = target: T1, SARS CoV-2 M^pro; type: biochemical
SARS-CoV M^pro = settings: read-out: SARS-CoV M^pro IC50; cited from earlier work
SARS CoV-2 M^pro [3] = target: T1, SARS CoV-2 M^pro; settings: cited from earlier work
SARS-CoV-2 M^pro = settings: cited from earlier work; for IC50: read-out: FRET IC50
SARS-CoV-2 = settings: read-out: EC50, secondary viral yield reduction assay; Vero E6 cells; cited from earlier work
[4] = test system: SARS-CoV-2 (isolate USA-WA1/2020); assay: Antiviral immunofluorescence assay in Calu-3 cells; type: cell-based; settings: read-out: Antiviral EC50 in Calu-3 cells
cathepsin L = settings: read-out: cathepsin L IC50; cited from earlier work
SARS CoV-2 M^pro [5] = target: T1, SARS CoV-2 M^pro; assay: Thermal shift assay; type: binding

SMILES | result in FlipGFP assay (in words) (SARS CoV-2 M^pro [1]) | result in Protease-Glo luciferase assay (in words) (SARS CoV-2 M^pro [2]) | other results
Cc1cccc(C)c1OCC(=O)N[C@@H](Cc1ccccc1)[C@@H](O)C[C@H](Cc1ccccc1)NC(=O)[C@H](C(C)C)N1CCCNC1=O [lopinavir] | not conclusive | not active | IC50 (SARS-CoV M^pro): 50000 nM
O=c1c2ccccc2[se]n1-c1ccccc1 [ebselen] | no inhibition | no inhibition | M^pro inhibition in FRET assay in the presence of DTT or GSH (in words) (SARS CoV-2 M^pro [3]): completely lost the M^pro inhibition
CCC[C@H](NC(=O)[C@@H]1[C@H]2CCC[C@H]2CN1C(=O)[C@@H](NC(=O)[C@@H](NC(=O)c1cnccn1)C1CCCCC1)C(C)(C)C)C(=O)C(=O)NC1CC1 [telaprevir] |  |  | inhibition in FRET assay (SARS CoV-2 M^pro [3]; at 20 μmol/L): 31%
COC(=O)N[C@H](C(=O)N[C@@H](Cc1ccccc1)[C@@H](O)CN(Cc1ccc(-c2ccccn2)cc1)NC(=O)[C@@H](NC(=O)OC)C(C)(C)C)C(C)(C)C [atazanavir] | not conclusive |  | 
CCN(CC)CCCC(C)Nc1ccnc2cc(Cl)ccc12 (centres unmarked) [chloroquine] |  |  | Ki (SARS-CoV-2 M^pro): 560 ± 120 nM
O=c1cc(-c2ccccc2)oc2cc(O)c(O)c(O)c12 [baicalein] | no inhibition | no inhibition | 
CC(C)(C)NC(=O)N[C@H](C(=O)N1C[C@H]2[C@@H]([C@H]1C(=O)NC(CC1CCC1)C(=O)C(N)=O)C2(C)C)C(C)(C)C (some centres unmarked) [boceprevir] |  |  | EC50 (SARS-CoV-2): 1950 nM
CCN(CC)C(=S)SSC(=S)N(CC)CC [disulfiram] | no inhibition | no inhibition | 
CCCC(NC(=O)C(CC(C)C)NC(=O)OCc1ccccc1)C(=O)C(=O)NCc1ccccn1 (centres unmarked) [calpain inhibitor XII] |  |  | EC50 [4]: 14800 nM; IC50 (cathepsin L): 1.62 nM
CN(C)[C@@H]1C(O)=C(C(N)=O)C(=O)[C@@]2(O)C(O)=C3C(=O)c4c(O)cccc4[C@@](C)(O)[C@H]3[C@H](O)[C@@H]12 [oxytetracycline] |  |  | Ki (SARS-CoV-2 M^pro): 990 ± 60 nM
CC(C)c1nc(CN(C)C(=O)N[C@@H](CCN2CCOCC2)C(=O)N[C@H](CC[C@H](Cc2ccccc2)NC(=O)OCc2cncs2)Cc2ccccc2)cs1 [cobicistat] | not conclusive |  | 
CCC(C)SSc1ncc[nH]1 (centres unmarked) [PX-12] | no inhibitory activity | no inhibitory activity | 
CC(C)=CC[C@@H](O)C1=CC(=O)c2c(O)ccc(O)c2C1=O [shikonin] | no inhibition | no inhibition | M^pro inhibition in FRET assay in the presence of DTT or GSH (in words) (SARS CoV-2 M^pro [3]): no inhibition
COC(=O)C1=C(C)NC(C)=C(C(=O)OCCN2CCN(C(c3ccccc3)c3ccccc3)CC2)C1c1cccc([N+](=O)[O-])c1 (centres unmarked) [manidipine] | no activity | no activity | binding to M^pro in thermal shift assay (in words) (SARS CoV-2 M^pro [5]): did not show binding; IC50 (SARS-CoV-2 M^pro; in the presence of 0.05% Tween-20): > 100000 nM
O=c1sn(-c2cccc3ccccc23)c(=O)n1Cc1ccccc1 [tideglusib] | no inhibitory activity | no inhibitory activity | 
CCOc1nc2cccc(C(=O)O)c2n1Cc1ccc(-c2ccccc2-c2nnn[nH]2)cc1 [candesartan] |  |  | Ki (SARS-CoV-2 M^pro): 180 ± 20 nM; IC50 (SARS-CoV-2 M^pro): 2800 ± 300 nM
CC(C)c1nc(CN(C)C(=O)N[C@H](C(=O)N[C@@H](Cc2ccccc2)C[C@H](O)[C@H](Cc2ccccc2)NC(=O)OCc2cncs2)C(C)C)cs1 [ritonavir] | not active | not active | 
CSCC[C@@H](C=O)NC(=O)[C@H](CC(C)C)NC(=O)[C@H](CC(C)C)NC(C)=O [calpain inhibitor II] (Ac-Leu-Leu-Met-aldehyde) |  |  | EC50 [4]: 30300 nM; IC50 (cathepsin L): 0.41 nM
Cc1c(O)cccc1C(=O)N[C@@H](CSc1ccccc1)[C@H](O)CN1C[C@H]2CCCC[C@H]2C[C@H]1C(=O)NC(C)(C)C [nelfinavir] | not conclusive |  | 
CCCCCCNC(=O)n1cc(F)c(=O)[nH]c1=O [carmofur] | no inhibitory activity | no inhibitory activity | 
